Results from patent US10670605B2, “Cysteine reactive probes and uses thereof” (The Scripps Research Institute, priority 2015, dated 2020).

Key:
Assay in all cases: Competitive isoTOP-ABPP, cell lysates;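 as to isoTOP-ABPP reactivity profile ratio, O00170 C122: Heavy/light ratio DMSO over fragment-treated so higher means more cysteine engagement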
Format in all cases: binding
AIP C122 (O00170) = molecular target: T1, AIP C122 (O00170) (Homo sapiens, UniProt O00170); details: for R value (DMSO/fragment): 250 μM, in vitro; for isoTOP-ABPP reactivity profile ratio, O00170_C122: 500 μm;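 as to isoTOP-ABPP reactivity profile ratio, O00170 C122: Heavy/light ratio DMSO over fragment-treated so higher means more cysteine engagement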
T1 sequence (O00170 1-330): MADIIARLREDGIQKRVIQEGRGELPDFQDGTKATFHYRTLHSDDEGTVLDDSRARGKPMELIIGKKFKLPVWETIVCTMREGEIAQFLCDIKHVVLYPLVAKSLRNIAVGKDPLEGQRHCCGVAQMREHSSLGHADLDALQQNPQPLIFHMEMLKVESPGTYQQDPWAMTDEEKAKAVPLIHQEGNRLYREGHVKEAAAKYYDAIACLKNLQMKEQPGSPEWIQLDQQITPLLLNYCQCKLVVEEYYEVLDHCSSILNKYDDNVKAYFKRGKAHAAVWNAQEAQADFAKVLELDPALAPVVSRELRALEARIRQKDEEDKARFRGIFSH

DCUN1D1 C115 (Q96GG9) = DCUN1D1 C115 (Q96GG9) (Homo sapiens, UniProt Q96GG9); details: for isoTOP-ABPP reactivity profile ratio, Q96GG9_C115 / isoTOP-ABPP reactivity ratio, Q96GG9_C115: 500 μm, in-vitro_ramos
UBE2S C118 (Q16763) = molecular target: T2, UBE2S C118 (Q16763) (Homo sapiens, UniProt Q16763); details: for isoTOP-ABPP ratio (reactivity profile), Q16763_C118: 500 μm in-vitro ramos; for isoTOP-ABPP reactivity profile ratio, Q16763_C118: 500 μm
T2 sequence (Q16763 1-222): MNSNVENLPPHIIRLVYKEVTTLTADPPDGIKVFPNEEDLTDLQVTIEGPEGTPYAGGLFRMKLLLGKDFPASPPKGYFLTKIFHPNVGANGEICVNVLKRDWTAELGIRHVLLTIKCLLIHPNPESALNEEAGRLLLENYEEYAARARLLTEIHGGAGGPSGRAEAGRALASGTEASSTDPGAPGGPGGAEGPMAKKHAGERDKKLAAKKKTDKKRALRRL

UCHL3 C95 (P15374) = molecular target: T3, UCHL3 C95 (P15374) (Homo sapiens, UniProt P15374); details: for isoTOP-ABPP reactivity profile ratio, P15374_C95: 500 μm
T3 sequence (P15374 1-230): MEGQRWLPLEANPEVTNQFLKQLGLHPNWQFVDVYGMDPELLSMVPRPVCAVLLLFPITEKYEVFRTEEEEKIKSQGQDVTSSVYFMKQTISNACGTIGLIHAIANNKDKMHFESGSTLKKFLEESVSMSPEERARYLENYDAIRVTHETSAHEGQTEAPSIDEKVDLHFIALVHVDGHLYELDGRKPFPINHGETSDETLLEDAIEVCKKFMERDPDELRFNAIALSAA

IDH2 C308 (P48735) = molecular target: T4, IDH2 C308 (P48735) (Homo sapiens, UniProt P48735); details: for isoTOP-ABPP reactivity profile ratio, P48735_C308: 500 μm, in-vitro_ramos_231
T4 sequence (P48735 40-452): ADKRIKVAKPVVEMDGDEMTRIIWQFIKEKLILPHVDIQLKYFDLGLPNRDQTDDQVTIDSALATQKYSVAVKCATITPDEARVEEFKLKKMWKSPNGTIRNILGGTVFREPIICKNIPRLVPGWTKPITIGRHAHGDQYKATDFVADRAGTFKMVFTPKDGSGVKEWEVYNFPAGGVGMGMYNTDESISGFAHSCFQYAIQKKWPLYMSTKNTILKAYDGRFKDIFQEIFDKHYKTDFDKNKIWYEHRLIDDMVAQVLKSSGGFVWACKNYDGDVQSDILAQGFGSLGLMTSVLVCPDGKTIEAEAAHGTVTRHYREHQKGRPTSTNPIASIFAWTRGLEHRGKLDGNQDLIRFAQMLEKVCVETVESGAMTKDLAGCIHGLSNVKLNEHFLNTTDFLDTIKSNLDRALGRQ

ZNF217 C286 (O75362) = ZNF217 C286 (O75362) (Homo sapiens, UniProt O75362)
Chain of ZNF217 C286 (O75362) (O75362 whole entry): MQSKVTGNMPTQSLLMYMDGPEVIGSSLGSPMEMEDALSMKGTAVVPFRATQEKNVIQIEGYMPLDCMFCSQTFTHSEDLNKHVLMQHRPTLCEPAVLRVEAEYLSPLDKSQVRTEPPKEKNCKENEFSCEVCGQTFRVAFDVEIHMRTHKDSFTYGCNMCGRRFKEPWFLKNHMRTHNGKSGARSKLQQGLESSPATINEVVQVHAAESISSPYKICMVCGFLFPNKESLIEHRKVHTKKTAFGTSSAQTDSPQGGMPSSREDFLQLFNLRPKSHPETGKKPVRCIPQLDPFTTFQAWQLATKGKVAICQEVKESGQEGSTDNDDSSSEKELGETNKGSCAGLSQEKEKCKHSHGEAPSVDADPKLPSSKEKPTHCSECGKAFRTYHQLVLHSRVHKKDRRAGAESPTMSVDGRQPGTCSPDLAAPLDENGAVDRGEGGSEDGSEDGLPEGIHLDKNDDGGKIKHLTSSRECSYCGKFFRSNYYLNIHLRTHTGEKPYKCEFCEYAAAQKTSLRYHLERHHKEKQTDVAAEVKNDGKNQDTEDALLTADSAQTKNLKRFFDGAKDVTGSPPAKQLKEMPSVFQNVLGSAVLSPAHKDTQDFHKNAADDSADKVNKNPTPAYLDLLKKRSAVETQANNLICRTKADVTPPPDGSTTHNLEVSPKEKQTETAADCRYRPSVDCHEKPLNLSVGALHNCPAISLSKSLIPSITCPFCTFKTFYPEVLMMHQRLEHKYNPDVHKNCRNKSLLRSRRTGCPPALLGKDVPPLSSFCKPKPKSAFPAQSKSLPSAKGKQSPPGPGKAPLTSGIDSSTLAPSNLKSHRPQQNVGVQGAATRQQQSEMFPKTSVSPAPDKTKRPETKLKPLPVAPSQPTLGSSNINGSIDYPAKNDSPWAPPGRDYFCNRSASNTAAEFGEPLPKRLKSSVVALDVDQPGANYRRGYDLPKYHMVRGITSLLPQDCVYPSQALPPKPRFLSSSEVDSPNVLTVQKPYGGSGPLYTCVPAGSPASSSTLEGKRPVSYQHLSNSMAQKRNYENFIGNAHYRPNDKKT

Chain of DCUN1D1 C115 (Q96GG9) (Q96GG9 whole entry): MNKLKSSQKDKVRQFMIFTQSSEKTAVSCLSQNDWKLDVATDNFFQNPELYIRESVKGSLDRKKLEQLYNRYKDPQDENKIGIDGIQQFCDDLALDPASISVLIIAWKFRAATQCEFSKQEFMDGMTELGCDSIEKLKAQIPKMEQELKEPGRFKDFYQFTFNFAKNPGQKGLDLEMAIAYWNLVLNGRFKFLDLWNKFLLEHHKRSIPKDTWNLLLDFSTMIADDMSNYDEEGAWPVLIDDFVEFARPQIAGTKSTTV

With `O=C(/C=C/c1ccccc1)Nc1cc(C(F)(F)F)cc(C(F)(F)F)c1` [compound 26] the “isoTOP-ABPP ratio (reactivity profile), O00170_C122” value (“isoTOP-ABPP ratio … O00170_C122” below) (AIP C122 (O00170); 500 μm in-vitro ramos) was 0.9, the “isoTOP-ABPP ratio (reactivity profile), Q96GG9_C115” value (from here on “isoTOP-ABPP ratio … Q96GG9_C115”) (DCUN1D1 C115 (Q96GG9); 500 μm in-vitro ramos) was 0.9 and the “isoTOP-ABPP ratio (reactivity profile), Q16763_C118” value (UBE2S C118 (Q16763)) was 0.9. For the same compound, the “isoTOP-ABPP ratio (reactivity profile), P15374_C95” value (“isoTOP-ABPP ratio … P15374_C95” below) (UCHL3 C95 (P15374); 500 μm in-vitro ramos) was 0.8.

With `COc1ccc(C2CC(c3cccs3)=NN2C(=O)CCl)cc1` (stereo not shown) [compound 4] the “R value (DMSO/fragment)” value (AIP C122 (O00170); MDA-MB-231) was 2.5, the “R value (DMSO/fragment)” value (AIP C122 (O00170); Ramos) was 0.3 and the “R value (DMSO/fragment)” value (UBE2S C118 (Q16763); 250 μM, in vitro, MDA-MB-231) was 1.2. For the same compound, the “R value (DMSO/fragment)” value (UCHL3 C95 (P15374); 250 μM, in vitro, Ramos) was 0.9, the “R value (DMSO/fragment)” value (IDH2 C308 (P48735); 250 μM, in vitro, MDA-MB-231) was 0.7 and the “R value (DMSO/fragment)” value (ZNF217 C286 (O75362); 250 μM, in vitro, MDA-MB-231) was 1.7.

With `O=C(CCl)Nc1cccc2ncccc12` [compound 51] the “isoTOP-ABPP reactivity profile ratio, O00170_C122” value (AIP C122 (O00170); in-vitro_ramos_231) was 1.4, the “isoTOP-ABPP reactivity profile ratio, Q96GG9_C115” value (DCUN1D1 C115 (Q96GG9)) was 0.8 and the “isoTOP-ABPP reactivity profile ratio, Q16763_C118” value (UBE2S C118 (Q16763); in-vitro_ramos) was 0.9. The “isoTOP-ABPP reactivity profile ratio, P15374_C95” value (UCHL3 C95 (P15374); in-vitro_ramos) was 0.9, the “isoTOP-ABPP reactivity profile ratio, O75362_C286” value (ZNF217 C286 (O75362); 500 μm, in-vitro_ramos) was 20.0 and the “isoTOP-ABPP reactivity profile ratio, O75362_C286” value (ZNF217 C286 (O75362); 500 μm, in-vitro_ramos_231) was 0.9.

With `CC1CCc2ccccc2N1C(=O)CCl` (stereo not shown) [compound 45] the “isoTOP-ABPP reactivity profile ratio, P48735_C308” value (IDH2 C308 (P48735)) was 1.0 and the “isoTOP-ABPP reactivity profile ratio, O75362_C286” value (ZNF217 C286 (O75362); 500 μm, in-vitro_ramos_231) was 20.0.

For `O=C(CCl)NC1C(O)OC(CO)C(O)C1O` (mixture of isomers) [compound 44], the “isoTOP-ABPP reactivity profile ratio, Q16763_C118” value (UBE2S C118 (Q16763); in-vitro_ramos_231) was 0.8 and the “isoTOP-ABPP reactivity profile ratio, P15374_C95” value (UCHL3 C95 (P15374); in-vitro_ramos_231) was 0.8.

For `O=C(CCl)Nc1ccccc1C1CCCCCC1` [compound 35], the “isoTOP-ABPP reactivity ratio, Q96GG9_C115” value (DCUN1D1 C115 (Q96GG9)) was 0.9.

With `O=C(CCl)N1CCc2cc(Br)ccc21` [compound 50] the “isoTOP-ABPP reactivity profile ratio, O00170_C122” value (AIP C122 (O00170); in-vitro_ramos_231) was 2.3, the “isoTOP-ABPP reactivity profile ratio, Q16763_C118” value (UBE2S C118 (Q16763); in-vitro_ramos_231) was 0.8 and the “isoTOP-ABPP reactivity profile ratio, P15374_C95” value (UCHL3 C95 (P15374); in-vitro_ramos_231) was 1.3. The “isoTOP-ABPP reactivity profile ratio, P48735_C308” value (IDH2 C308 (P48735)) was 2.2.

For `O=C(CCl)N1CCN(CC(=O)N2CCOCC2)CC1` [compound 29], the “isoTOP-ABPP ratio … O00170_C122” value (AIP C122 (O00170); 500 μm in-vitro ramos) was 1.3, the “isoTOP-ABPP ratio … P15374_C95” value (UCHL3 C95 (P15374); 500 μm in-vitro ramos) was 1.0 and the “isoTOP-ABPP ratio … P15374_C95” value (UCHL3 C95 (P15374); 500 μm in-vitro ramos_231) was 0.9. For the same compound, the “isoTOP-ABPP ratio (reactivity profile), P48735_C308” value (IDH2 C308 (P48735); 500 μm in-vitro ramos_231) was 1.0 and the “isoTOP-ABPP ratio (reactivity profile), O75362_C286” value (ZNF217 C286 (O75362); 500 μm in-vitro ramos_231) was 0.9.

For `O=C(CCl)N1CCOCC1` [compound 22], the “isoTOP-ABPP ratio … O00170_C122” value (AIP C122 (O00170); 500 μm in-vitro ramos) was 1.1, the “isoTOP-ABPP ratio … O00170_C122” value (AIP C122 (O00170); 500 μm in-vitro ramos_231) was 1.3 and the “isoTOP-ABPP ratio … Q96GG9_C115” value (DCUN1D1 C115 (Q96GG9); 500 μm in-vitro ramos) was 0.8. For the same compound, the “isoTOP-ABPP ratio … Q96GG9_C115” value (DCUN1D1 C115 (Q96GG9); 500 μm in-vitro ramos_231) was 1.0, the “isoTOP-ABPP ratio (reactivity profile), Q16763_C118” value (UBE2S C118 (Q16763)) was 0.9 and the “isoTOP-ABPP ratio … P15374_C95” value (UCHL3 C95 (P15374); 500 μm in-vitro ramos) was 0.7.

In the case of `N#CC(=Cc1ccc(-c2ccccc2Cl)o1)C(N)=O` [compound 42], the “isoTOP-ABPP reactivity profile ratio, O00170_C122” value (AIP C122 (O00170); in-vitro_ramos) is reported as 0.8, the “isoTOP-ABPP reactivity profile ratio, Q96GG9_C115” value (DCUN1D1 C115 (Q96GG9)) is reported as 0.9 and the “isoTOP-ABPP reactivity profile ratio, Q16763_C118” value (UBE2S C118 (Q16763); in-vitro_ramos) is reported as 0.8. The “isoTOP-ABPP reactivity profile ratio, P15374_C95” value (UCHL3 C95 (P15374); in-vitro_ramos) was 0.9 and the “isoTOP-ABPP reactivity profile ratio, O75362_C286” value (ZNF217 C286 (O75362); 500 μm, in-vitro_ramos) was 1.0.

With `C=CC(=O)N1CCC(c2noc3ccc(F)cc23)CC1` [compound 37] the “isoTOP-ABPP reactivity ratio, Q96GG9_C115” value (DCUN1D1 C115 (Q96GG9)) was 0.8 and the “isoTOP-ABPP reactivity ratio, O75362_C286” value (ZNF217 C286 (O75362); 500 μm, in-vitro_ramos) was 0.9.
